{
  "source": "patent US20140364359A1",
  "about": "“COMPOSITIONS AND METHODS FOR TREATING CANCER AND INFLAMMATION-RELATED DIESEASES AND CONDITIONS” (priority 2012, published 2014)",
  "key": {"[1]": {"system": "Primary tumor", "test": "Percent inhibition of growth relative to controls, primary tumor (Table 4)", "type": "in vivo"}, "[2]": {"system": "SGC-7901 peritoneal carcinomatosis", "test": "GC peritoneal carcinomatosis model, therapeutic study", "type": "in vivo, nude mice", "settings": "ADM 2.0 mg/kg; for lung metastasis / median (range) ePCI score: D40; for lung metastasis / relative ePCI reduction: PADM 7.2 mg/kg i.p x8; for median (range) ePCI score: i.p x8 (D8-D36), PADM 7.2 mg/kg; for relative ePCI reduction: compared with control"}, "[3]": {"settings": "mice, cited from earlier work"}, "[4]": {"settings": "for peripheral blood parameters (RBC, lymphocytes) versus control: D16, D24, D32 tail vein blood; for liver and kidney function (ALT, AST, BUN, Cr) versus control: D40 serum, 4 major parameters; for body weight: ADM 2.0 mg/kg, PADM 7.2 mg/kg i.p x8 (FIG. 3)", "protocol": "After 3 days of adaptation, the animals were used for in vivo study, and the protocols were approved by the Animal Care Committee of Wuhan University.\nSGC-7901 cells (5×10^6/0.2 ml) were subcutaneously inoculated into the back of nude mice (n=4) as donor tumors, and cells (1×10^7/0.4 ml) were i.p inoculated into the peritoneal cavity of nude mice (n=2). After 50 days, tumor nodules and ascites were obtained and tumor tissue homogenate was re-suspended in ascites at a density of 1×10^7/ml (ascites were used as condition medium). These cell suspensions were injected i.p into 29 nude mice, 0.2 ml containing 5×10^6 cells for each animal, on day 0 (D0). On D8, all of the mice were randomized into 3 groups: control group (n=9), ADM group (n=10) and PADM group (n=10). […] D40 was set as the end point of this study. On D16, D24 and D32, 80 μl of blood was obtained from tail veins, anticoagulated by EDTA, and analyzed by Sysmex KX-21 automated hematology analyzer (Sysmex, Kobe, Japan). On D40, all mice were sacrificed, blood was obtained, coagulated and centrifugated at 4° C.×3000 rpm for 10 min to separate serum for biochemical analysis, including ALT (alanine aminotransferase), AST (aspartate aminotransferase), BUN (blood urea nitrogen), Cr (creatinine), CK (creatine kinase), CK-MB (creatine kinase-MB), LDH (lactate dehydrogenase) by Aeroset Clinical Chemistry Analyzer (Abbott Laboratories, IL, USA).\nAt autopsy, major organs including the heart, liver, kidneys, spleen and lungs were examined for any toxic changes. Any organs involved by the tumor and the tumor nodules were formalin-fixed, paraffin-embedded, and cut at 5-μm thickness, for histopathological study after hematoxylin and eosin (H&E) staining"}, "[5]": {"system": "SGC-7901 cells", "test": "Flow cytometric analysis of cell cycle", "type": "cell-based, Human", "settings": "SGC-7901, 24 h, ADM 0.25 μg/ml, PADM 0.45 μg/ml", "procedure": "(§1) Human gastric adenocarcinoma cell line SGC-7901 which had been widely used for gastric cancer research was maintained in Hubei Key Laboratory of Tumor Biological Behaviors. Cells were cultured in RPMI-1640 medium supplemented with 10% standard newborn bovine serum in the 5% CO2, saturated humidity, 37° C. incubator (Shel Lab, OR, USA). The culture medium was changed every 2 days.\nTo study the effect of PADM on cell cycle, flow cytometric analysis was performed. SGC-7901 cells were planted in 6-well culture plates (Corning, N.Y., USA), at a density of 2×10^6/well. After 48 h, the cells were divided into 3 groups and treated for 24 h with normal saline (25 μl), ADM (0.25 μg/ml), and PADM (0.45 μg/ml). The cells in each group were harvested to make single-cell suspension, centrifuged at 4° C.×1000 rpm for 10 min, washed twice with phosphate buffered saline (pH=7.4), fixed and stained with PI kit. Cell cycle analysis was performed by flow cytometry with FC 500 (Beckman Coulter, Calif., USA)."}, "[6]": {"system": "Metastases", "test": "Percent inhibition of growth relative to controls, metastases (Table 4)", "type": "in vivo"}, "[7]": {"system": "SGC-7901 cells", "test": "Cell growth assay", "type": "cell-based", "settings": "Homo sapiens, read-out: inhibition rate of cell growth", "procedure": "as §1\nSGC-7901 cells at exponential growth phase were planted in 24-well culture plates (Corning, N.Y., USA) at a density of 1×10^5/well. After 48 h, cell numbers were determined by direct cell counting of 3 wells, which was designated as cell number of day 0 (D0). Then the cells were divided into 6 groups, treated with normal saline (100 μl), ADM (0.5 μg/ml), ADM (1.0 μg/ml), PADM (0.9 μg/ml), PADM (1.8 μg/ml), and PADM (3.6 μg/ml), respectively, 3 wells per group. Cells in each group were harvested and counted daily from D2 to D7. The cell growth curve was plotted."}, "[8]": {"settings": "37° C., over 6-7 h; cited from earlier work"}, "[9]": {"molecular_target": "Cat B (Homo sapiens, UniProt P07858)", "settings": "cited from earlier work"}, "[10]": {"test": "Pilot dosage study", "settings": "nude mice"}, "[11]": {"settings": "Metastases to Mediastinal lymph nodes"}},
  "note": "“Also recorded” adds a separate entry of the source. Where two headings read alike, the source gives them in different places.",
  "data": [
    {"compound": "COc1cccc2c1C(=O)c1c(O)c3c(c(O)c1C2=O)C[C@@](O)(C(=O)CO)C[C@@H]3O[C@H]1C[C@H](N)[C@H](O)[C@H](C)O1", "note": "[ADM, doxorubicin, reference compound]", "values": [
      {"measurement": "Percent inhibition of growth relative to controls", "setting": "[1]", "value": 42, "unit": "%"},
      {"measurement": "lung metastasis", "setting": "[2]", "value": "no lung metastasis"},
      {"measurement": "median (range) ePCI score", "setting": "[2]", "value": "1.5 (0-6)"},
      {"measurement": "relative ePCI reduction", "setting": "[2]", "value": 75, "unit": "%"},
      {"measurement": "LD50", "setting": "[3]; given intraperitoneally (i.p)", "value": 13.2, "unit": "mg/kg"},
      {"measurement": "LD50", "setting": "[3]; given intravenously", "value": 12.0, "unit": "mg/kg"},
      {"measurement": "peripheral blood parameters (RBC, lymphocytes) versus control", "setting": "[4]", "value": "significantly lower RBC counts"},
      {"measurement": "nude mice died due to severe toxicity", "setting": "[4]; D36, group n=10", "value": 1},
      {"measurement": "liver and kidney function (ALT, AST, BUN, Cr) versus control", "setting": "[4]", "value": "3 out of the 4 parameters achieved statistical significance"},
      {"measurement": "animals with significant myocardium toxicities (histopathology)", "setting": "[4]; male, BALB/c nude, mouse, in vivo", "value": 7, "unit": "animals"},
      {"measurement": "body weight course versus control", "setting": "[4]; nude mice PC model, whole study period to D40", "value": "significant decrease on D24"},
      {"measurement": "body weight", "setting": "[4]; nude mice PC model", "value": "18.40 ± 2.97", "unit": "g"},
      {"measurement": "effect on cell cycle / apoptosis", "setting": "[5]", "value": "a prominent apoptosis peak was observed"},
      {"measurement": "Percent inhibition of growth relative to controls", "setting": "[6]; Metastases to Diaphragm", "value": 19, "unit": "%"},
      {"measurement": "Percent inhibition of growth relative to controls", "setting": "[6]; Metastases to Lung", "value": 36, "unit": "%"},
      {"measurement": "Percent inhibition of growth relative to controls", "setting": "[6]; [11]", "value": 9.1, "unit": "%"},
      {"measurement": "Percent inhibition of growth relative to controls", "setting": "[6]; Metastases to Mesenteric", "value": 9.1, "unit": "%"},
      {"measurement": "Percent inhibition of growth relative to controls", "setting": "[6]; Metastases to Retroperitoneal", "value": 65, "unit": "%"},
      {"measurement": "inhibition at 0.5 µg/mL", "setting": "[7]; SGC-7901, D7, 0.5 μg/ml", "value": 80.2, "unit": "%"},
      {"measurement": "inhibition at 1 µg/mL", "setting": "[7]; SGC-7901, D7, 1.0 μg/ml", "value": 96.3, "unit": "%"}
    ]},
    {"compound": "COc1cccc2c1C(=O)c1c(O)c3c(c(O)c1C2=O)C[C@@](O)(C(=O)CO)C[C@@H]3O[C@H]1C[C@H](NC(=O)OCc2ccc(NC(=O)[C@H](CCCCN)NC(=O)[C@H](Cc3ccccc3)NC(C)=O)cc2)[C@H](O)[C@H](C)O1", "note": "[PADM, Ac-Phe-Lys-PABC-ADM]", "values": [
      {"measurement": "Ratio, PADM/Dox", "setting": "[1]", "value": 1.05},
      {"measurement": "changes in human plasma (stability)", "setting": "[8]", "value": "no changes were observed; also recorded: stable in human plasma"},
      {"measurement": "cleavage in Cat B-rich medium", "setting": "[9]", "value": "rapidly cleaved"},
      {"measurement": "histopathological study of major organs", "setting": "[10]; after 4 administrations", "value": "No obvious damages"},
      {"measurement": "body weight changes", "setting": "[10]; after the fourth administration, total 96.0 mg/kg group A, 144.0 mg/kg group B", "value": "persistent body weight decreases"},
      {"measurement": "body weight changes", "setting": "[10]; i.p, first 3 injections, groups A and B", "value": "no obvious changes in body weight"},
      {"measurement": "ceiling dosage set for formal in vivo test", "setting": "[10]; total dosage", "value": "below 96.0 mg/kg"},
      {"measurement": "lung metastasis", "setting": "[2]", "value": "no lung metastasis"},
      {"measurement": "median (range) ePCI score", "setting": "[2]", "value": "1 (1-4)"},
      {"measurement": "relative ePCI reduction", "setting": "[2]", "value": 83.3, "unit": "%"},
      {"measurement": "peripheral blood parameters (RBC, lymphocytes) versus control", "setting": "[4]", "value": "no differences"},
      {"measurement": "animals with significant myocardium toxicities (histopathology)", "setting": "[4]; D40, group n=10", "value": 4, "unit": "animals"},
      {"measurement": "liver and kidney function (ALT, AST, BUN, Cr) versus control", "setting": "[4]", "value": "only ALT levels achieved statistical significance"},
      {"measurement": "body weight", "setting": "[4]; nude mice PC model", "value": "23.61 ± 0.80", "unit": "g"},
      {"measurement": "effect on cell cycle / apoptosis", "setting": "[5]", "value": "did not show significant apoptosis"},
      {"measurement": "Ratio, PADM/Dox", "setting": "[6]; Metastases to Diaphragm", "value": 2.3},
      {"measurement": "Ratio, PADM/Dox", "setting": "[6]; Metastases to Lung", "value": 1.9},
      {"measurement": "Ratio, PADM/Dox", "setting": "[6]; [11]", "value": 5.7},
      {"measurement": "Ratio, PADM/Dox", "setting": "[6]; Metastases to Mesenteric", "value": 3.8},
      {"measurement": "Ratio, PADM/Dox", "setting": "[6]; Metastases to Retroperitoneal", "value": 1.2}
    ]}
  ]
}
